Results reported in patent US8017629B2, “Compounds and uses thereof in modulating amyloid β” (Neurogenetic Pharmaceuticals, Inc., priority 2003, dated 2011).
pEC50: −log10 of the molar value.

System: Aβ42 levels in the extracellular medium
Test: FRET (HTRF) assay, Aβ42 level of the extracellular medium of SH-SY5Y-APP cells
Assay type: cell-based
Settings: Homo sapiens, concentration at which reduction of Aβ42 level was half of the maximum reduction, read-out: Ab42 Potency
Method: Compounds were evaluated for activity in modulating Aβ42 and Aβ40 levels in the extracellular medium using a homogeneous time-resolved fluorescence (HTRF) assay as follows.
For the HTRF assay, either 5 or 10 μl of supernatant from treated cells was added to 10 or 15 μl of labeled antibody pairs, for a total volume of 20 μl, and incubated for 20-24 hours at 4° C. The labeled antibody pairs were either 8000 pg B436-XL665 and 400 pg B113 Europium, for assessing Aβ40 levels, or 8000 pg B436-XL665 and 400 pg A387 Europium, for assessing Aβ42 levels, diluted in 50 mM NaPO4, 0.2% BSA, 0.5M KF, pH 7. The fluorescence was read on a BMG Rubystar at 620 nm and 665 nm.

SMILES	pEC50
CCN(CC)c1cc(C)c(Nc2nc(-c3ccc(-n4cnc(C)c4)cc3)cs2)cc1C [Compound 285]	> 6.70
Cc1cn(-c2ccc(-c3nc(Nc4cc(C)c(C)cc4C)sc3C)cc2Br)cn1 [Compound 243]	5.30 to 5.96
Cc1cn(-c2ccc(-c3csc(Nc4cc(N(C)CC5CC5)ccc4C)n3)cc2F)cn1 [Compound 315]	> 6.70
CCN(CC)c1ccc(N(CC)c2nc(-c3ccc(-n4ccnc4)cc3)cs2)c(C)c1 [Compound 176]	5.00 to 5.29
CCN(CC)c1cc(Nc2nc(-c3ccc(-n4ccnc4)nc3)cs2)c(C)cc1C [Compound 320]	> 6.70
COc1ccc(-c2csc(Nc3ccc(C)c(Cl)c3)n2)c(OC)c1 [Compound 194]	5.30 to 5.96
Cc1ccc(Nc2nc(-c3ccc(Br)cc3)co2)c(C)c1 [Compound 344]	5.30 to 5.96
CCN(CC)CCN(C)c1ccc(Nc2nc(-c3ccc(-n4ccnc4)cc3)cs2)c(C)c1 [Compound 210]	5.30 to 5.96
CCN(CCOC)c1ccc(Nc2nc(-c3ccc(-n4cnc(C)c4)nc3)cs2)c(C)c1 [Compound 261]	6.00 to 6.70
CCN(CCOC)c1ccc(Nc2nc(-c3ccc(-n4cnc(C)c4)cc3C(F)(F)F)cs2)c(C)c1 [Compound 232]	5.00 to 5.29
CCN(CC)CCN(C)c1ccc(Nc2nc(-c3ccc(-n4ccnc4)cc3)cs2)c(C(F)(F)F)c1 [Compound 219]	5.30 to 5.96
Cc1ccc(Nc2nc(-c3ccc(-n4ccnc4)cc3)co2)c(C)c1 [Compound 345]	5.00 to 5.29
Cc1cn(-c2ccc(-c3csc(Nc4cc(N5CCCCC5)ccc4C)n3)cn2)cn1 [Compound 283]	> 6.70
COc1ccc(-c2csc(Nc3ccc4c(c3)OCCO4)n2)c(OC)c1 [Compound 182]	4.52 to 5.00
COc1cc(Nc2nc(-c3ccc4c(c3)OCCO4)cs2)cc(OC)c1OC [Compound 102]	5.00 to 5.29
Cc1cnn(-c2ccc(-c3nc(Nc4c(Cl)cc(Cl)cc4Cl)sc3C)cc2)c1 [Compound 246]	5.30 to 5.96
COc1cc(Nc2nc(-c3ccc(-c4ccccn4)s3)cs2)cc(OC)c1OC [Compound 106]	5.00 to 5.29
CCN(CC)c1ccc(C)c(Nc2nc(-c3ccc(-n4cnc(C)c4)c(F)c3)cs2)c1 [Compound 309]	> 6.70
COc1cc(C)c(Nc2nc(-c3ccc(-n4cnc(C)c4)cc3)cs2)cc1C(C)C [Compound 295]	> 6.70
CCN(CC)c1ccc(Nc2nc(-c3ccc(-n4cc(C)nc4C)cc3)cs2)c(C)c1 [Compound 249]	5.30 to 5.96
Cc1ccc(CO)cc1Nc1nc(-c2ccc(-n3ccnc3)cc2)cs1 [Compound 298]	6.00 to 6.70
c1nc2cc(Nc3nc(-c4ccc5c(c4)OCO5)cs3)ccc2[nH]1 [Compound 161]	5.00 to 5.29

SMILES	pEC50
Cc1cc(NCc2ccccn2)ccc1Nc1nc(-c2ccc(-n3ccnc3)cc2)cs1 [Compound 208]	5.00 to 5.29
COc1cc(C)c(Nc2nc(-c3ccc(-n4cnc(C)c4)nc3)cs2)cc1C(C)C [Compound 296]	> 6.70
COc1cc(Nc2nc(-c3ccc(F)cc3)cs2)cc(OC)c1OC [Compound 108]	5.00 to 5.29
COc1ccc(-c2csc(Nc3ccc(I)cc3)n2)c(OC)c1 [Compound 125]	5.30 to 5.96
Clc1ccc(Nc2nc(-c3ccc(-n4cnc(Cl)c4Cl)cc3)cs2)cc1Cl [Compound 186]	5.30 to 5.96
Cc1cn(-c2ccc(-c3csc(Nc4cc5cn[nH]c5cc4C)n3)cn2)cn1 [Compound 331]	5.00 to 5.29
COc1ccc(Nc2nc(-c3ccc(Cl)cc3)co2)cc1 [Compound 339]	5.30 to 5.96
CCCCN(CC)c1ccc(C)c(Nc2nc(-c3ccc(-n4cnc(C)c4)nc3)cs2)c1 [Compound 317]	6.00 to 6.70
CNCCN(C)c1ccc(Nc2nc(-c3ccc(-n4ccnc4)cc3)cs2)c(C(F)(F)F)c1 [Compound 224]	5.30 to 5.96
Cc1cc(C)c(Nc2nc(-c3ccc(-n4cnc(Br)c4)cc3)cs2)c(C)c1 [Compound 251]	5.30 to 5.96
COc1ccc(Nc2nc(-c3ccc(-n4ccnc4)cc3)co2)cc1 [Compound 340]	5.30 to 5.96
CN(C)CCNc1ccc(Nc2nc(-c3ccc(-n4ccnc4)cc3)cs2)c(C(F)(F)F)c1 [Compound 217]	5.30 to 5.96
Cc1cn(-c2ccc(-c3csc(Nc4cc(-n5cccc5)ccc4C)n3)cc2)cn1 [Compound 293]	6.00 to 6.70
COc1ccc(OC)c(Nc2nc(-c3ccc(-n4cnc(C)c4)cc3)cs2)c1 [Compound 264]	6.00 to 6.70
CCc1cn(-c2ccc(-c3csc(Nc4ccc(N(CC)CC)cc4C)n3)cc2)cn1 [Compound 272]	6.00 to 6.70
Cc1cc(C)c(Nc2nc(-c3ccc(-n4nccn4)cc3)cs2)cc1C [Compound 244]	5.30 to 5.96
Cc1cn(-c2ccc(-c3csc(Nc4cc(N5CCSCC5)ccc4C)n3)cn2)cn1 [Compound 281]	> 6.70
CCN(CC)c1cc(Nc2nc(-c3ccc(-n4ccnc4)cc3)cs2)c(C)cc1C [Compound 291]	> 6.70
CSc1cccc(Nc2nc(-c3ccc4c(c3)OCCO4)cs2)c1 [Compound 167]	5.00 to 5.29
CCOc1cc(C)c(Nc2nc(-c3ccc(-n4cnc(C)c4)nc3)cs2)cc1C [Compound 287]	> 6.70
CCN(CC)c1ccc(N(CC)c2nc(-c3ccc(-n4cnc(C)c4)cc3)cs2)c(C)c1 [Compound 273]	6.00 to 6.70

Now from value to molecule:

pEC50	SMILES
> 6.70	Cc1cn(-c2ccc(-c3csc(Nc4cc(N5CCOCC5)ccc4C)n3)cn2)cn1 [Compound 276]
5.30 to 5.96	Cc1cn(-c2ccc(-c3csc(Nc4ccc(N5CCOCC5)c(Cl)c4)n3)cc2)cn1 [Compound 225]
5.30 to 5.96	CCN(c1ccc(N2CCOCC2)cc1)c1nc(-c2ccc(-n3ccnc3)cc2)cs1 [Compound 180]
4.52 to 5.00	CCc1ccc(Nc2nc(-c3ccc(N4CCN(C)CC4)cc3)cs2)cc1 [Compound 132]
5.30 to 5.96	CSc1cccc(Nc2nc(-c3ccc(N4CCN(C)CC4)cc3)cs2)c1 [Compound 145]
> 6.70	CCN(CC)c1ccc(C)c(Nc2nc(-c3ccc(-n4cnc(C)c4)cc3)cs2)c1 [Compound 268]
5.30 to 5.96	CCN1CCN(c2ccc(-c3csc(Nc4ccc5c(c4)OCO5)n3)cc2)CC1 [Compound 162]
5.30 to 5.96	CCN(CCOC)c1ccc(Nc2nc(-c3ccc(-n4ccnc4)cc3)cs2)c(C)c1 [Compound 230]
5.00 to 5.29	c1cc2c(cc1Nc1nc(-c3ccc(N4CCN(CC5CC5)CC4)cc3)cs1)OCO2 [Compound 164]
5.30 to 5.96	Cc1ccc(-n2cccc2)cc1Nc1nc(-c2ccc(N3CCN(C)CC3)cc2)cs1 [Compound 323]
6.00 to 6.70	CCN(CC)c1ccc(Nc2nc(-c3ccc(-n4ccnc4)cc3)cs2)c(C)c1 [Compound 133]
5.30 to 5.96	COc1cccc(CNc2nc(-c3ccc(N4CCN(C)CC4)cc3)cs2)c1 [Compound 135]
6.00 to 6.70	CN1CCN(c2ccc(-c3csc(Nc4cccc5ccccc45)n3)cn2)CC1 [Compound 333]
4.52 to 5.00	Cc1ccc(Nc2nc(-c3ccc(C#N)cc3)cs2)cc1Cl [Compound 193]
5.30 to 5.96	COc1ccc(Nc2nc(-c3ccc(N4CCN(C)CC4)cc3)cs2)cc1 [Compound 137]
> 6.70	Cc1cn(-c2ccc(-c3csc(Nc4cc(N(C)C)ccc4C)n3)cn2)cn1 [Compound 282]
5.30 to 5.96	Cc1ccc(N2CCCCC2)cc1Nc1nc(-c2ccc(-n3ccnc3)cc2)cs1 [Compound 252]
5.30 to 5.96	CN1CCN(c2ccc(-c3csc(Nc4ccc5[nH]ncc5c4)n3)cc2)CC1 [Compound 141]
6.00 to 6.70	Cc1ccc(C)c(Nc2nc(-c3ccc(-n4ccnc4)cc3)cs2)c1 [Compound 302]

pEC50	SMILES
5.30 to 5.96	CN1CCN(c2ccc(-c3csc(Nc4cccc5cccnc45)n3)cc2)CC1 [Compound 128]
5.30 to 5.96	CCN(CC)c1cc(Nc2nc(-c3ccc(N4CCN(C)CC4)nc3)cs2)c(C)cc1C [Compound 332]
4.52 to 5.00	CC(C)N(c1ccccc1)c1ccc(Nc2nc(-c3ccncc3)cs2)cc1 [Compound 169]
5.30 to 5.96	CN1CCN(c2ccc(Nc3nc(-c4ccc(-n5ccnc5)cc4)cs3)c(C(F)(F)F)c2)CC1 [Compound 215]
> 6.70	COc1ccc(C)c(Nc2nc(-c3ccc(-n4ccnc4)cc3)cs2)c1 [Compound 351]
> 6.70	CCN(CC)c1ccc(C)c(Nc2nc(-c3ccc(-n4ccnc4)cc3)cs2)c1 [Compound 265]
6.00 to 6.70	CN1CCN(c2ccc(-c3csc(Nc4ccc(Cl)cc4)n3)cc2)CC1 [Compound 148]
5.30 to 5.96	Cc1cn(-c2ccc(-c3csc(Nc4ccc(N5CC(C)OC(C)C5)cc4)n3)cc2)cn1 (stereo not drawn) [Compound 260]
5.30 to 5.96	Cc1cc(NCCN(C)C)ccc1Nc1nc(-c2ccc(-n3ccnc3)cc2)cs1 [Compound 202]
5.30 to 5.96	CCN(c1ccc(N2CCCCC2)cc1)c1nc(-c2ccc(-n3ccnc3)cc2)cs1 [Compound 184]
5.00 to 5.29	CN1CCN(c2ccc(-c3csc(Nc4ccc5c(cnn5C)c4)n3)cc2)CC1 [Compound 140]
5.30 to 5.96	Cc1cc(N2CCN(Cc3ccccc3)CC2)ccc1Nc1nc(-c2ccc(-n3ccnc3)cc2)cs1 [Compound 201]
5.00 to 5.29	CN1CCN(c2ccc(-c3csc(Nc4ccc(N(C)C)cc4)n3)cc2)CC1 [Compound 117]
6.00 to 6.70	CSc1cccc(Nc2nc(-c3ccc(N4CCCC4)cc3)cs2)c1 [Compound 166]
5.30 to 5.96	CCN(CCO)c1ccc(Nc2nc(-c3ccc(-n4ccnc4)cc3)cs2)c(C)c1 [Compound 203]
5.00 to 5.29	Oc1ccc(Nc2nc(-c3ccc4c(c3)OCO4)cs2)cc1 [Compound 118]
5.00 to 5.29	Oc1ccc(Nc2nc(-c3ccc(-c4ccccc4)cc3)cs2)cc1 [Compound 121]
5.30 to 5.96	CCc1cc(N2CCOCC2)ccc1Nc1nc(-c2ccc(-n3ccnc3)cc2)cs1 [Compound 239]
5.00 to 5.29	CSc1cccc(Nc2nc(-c3ccc(N(C)C)cc3)cs2)c1 [Compound 165]
